From the supplement of paper PMC10307832

Tests used:
Assay in all cases: relative viability (nuclei count vs DMSO), 5 days (fraction); higher = more cells survive
BI-D1870 + Luminespib = compound: CC(C)CCN1c2nc(Nc3cc(F)c(O)c(F)c3)ncc2N(C)C(=O)C1C [BI-D1870] + CCNC(=O)c1noc(-c2cc(C(C)C)c(O)cc2O)c1-c1ccc(CN2CCOCC2)cc1 [Luminespib] (partner 0.01 µM)
Procedure, shortened: (§1)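 Lung cancer cell lines, seeded in 1536-well plates, were treated the following day by pin tool with a single drug or with five library-drug doses (not always all listed) in √10 steps on top of a fixed anchor-drug dose. Cells were fixed and nuclei stained in one step after 5 days, and nuclei were counted. Relative viability is the nuclei count for treated wells divided by that for vehicle wells, reported as medians of duplicate plates.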

BI-D1870 + Phenformin = compound: CC(C)CCN1c2nc(Nc3cc(F)c(O)c(F)c3)ncc2N(C)C(=O)C1C [BI-D1870] + N=C(N)NC(=N)NCCc1ccccc1 [Phenformin] (partner 250 µM)
Procedure, shortened: as §1

BI-D1870 + Decitabine = compound: CC(C)CCN1c2nc(Nc3cc(F)c(O)c(F)c3)ncc2N(C)C(=O)C1C [BI-D1870] + Nc1ncn([C@H]2C[C@H](O)[C@@H](CO)O2)c(=O)n1 [Decitabine] (partner 2 µM)
Procedure, shortened: as §1

Zebularine + Linsitinib = compound: O=c1ncccn1[C@@H]1O[C@H](CO)[C@@H](O)[C@H]1O [Zebularine] + C[C@]1(O)C[C@@H](c2nc(-c3ccc4ccc(-c5ccccc5)nc4c3)c3c(N)nccn32)C1 [Linsitinib] (partner 1 µM)
Procedure, shortened: as §1

Cell Line	relative viability (BI-D1870 + Luminespib; first compound 0.04 µM)	relative viability (BI-D1870 + Luminespib; first compound 0.1265 µM)	relative viability (BI-D1870 + Luminespib; first compound 0.4 µM)	relative viability (BI-D1870 + Luminespib; first compound 1.265 µM)	relative viability (BI-D1870 + Luminespib; first compound 4 µM)	relative viability (BI-D1870 + Phenformin; first compound 0.04 µM)	relative viability (BI-D1870 + Phenformin; first compound 0.1265 µM)	relative viability (BI-D1870 + Phenformin; first compound 0.4 µM)	relative viability (BI-D1870 + Phenformin; first compound 1.265 µM)	relative viability (BI-D1870 + Phenformin; first compound 4 µM)	relative viability (BI-D1870 + Decitabine; first compound 0.04 µM)	relative viability (BI-D1870 + Decitabine; first compound 0.1265 µM)	relative viability (BI-D1870 + Decitabine; first compound 0.4 µM)	relative viability (BI-D1870 + Decitabine; first compound 1.265 µM)	relative viability (BI-D1870 + Decitabine; first compound 4 µM)	relative viability (Zebularine + Linsitinib; first compound 1 µM)	relative viability (Zebularine + Linsitinib; first compound 3.162 µM)	relative viability (Zebularine + Linsitinib; first compound 31.62 µM)	relative viability (Zebularine + Linsitinib; first compound 100 µM)	relative viability (Zebularine + Linsitinib; first compound 10 µM)
NCI-H1651	0.902	0.743	0.764	1.03	0.843	0.389	0.315	0.287	0.295	0.322	0.615	0.592	0.537	0.64	0.617	1	0.893	0.904	0.465	
NCI-H1755	0.577	0.542	0.413	0.771	0.316	0.651	0.62	0.647	0.688	0.573	0.716	0.685	0.701	0.715	0.692	0.722	1.01	1	0.506	0.844
NCI-H661	0.961	0.935	0.988	1.01	0.877	0.27	0.28	0.281	0.289	0.269	0.524	0.555	0.542	0.651	0.546	0.499	0.541	0.539	0.633	0.58
HARA	0.939	0.626	0.671	0.486	0.666	0.513	0.455	0.475	0.506	0.402	0.513	0.527	0.568	0.683	0.684	1.01	0.923	0.968	0.623	
NCI-H596	1.16	0.985	1.27	0.786	0.915	0.809	0.683	0.695	0.74	0.855	1.06	0.857	0.956	1.14	0.999	1.03	1.04	1.06	1.01	0.832
NCI-H23	0.237	0.222	0.232	0.217	0.24	0.827	0.758	0.768	0.759	0.736	0.336	0.329	0.306	0.333	0.242	0.671	0.549	0.646	0.548	
LCLC-97TM1	0.892	0.775	0.769	0.918	0.846	0.458	0.472	0.396	0.417	0.453	0.236	0.231	0.209	0.255	0.262	0.192	0.168	0.128	0.11	0.144
EPLC-272H	0.559	0.13	0.207	0.245	0.272	0.36	0.262	0.289	0.28	0.2	0.372	0.346	0.417	0.359	0.372	1.62		1.05	0.746	
NCI-H1915	0.957	0.673	0.732	0.873	0.761	0.376	0.358	0.378	0.305	0.291	0.267	0.247	0.285	0.234	0.271	1.09	1.08	1.09	0.94	1.07
NCI-H2405	0.711	0.577	0.68	0.883	0.54	0.436	0.415	0.386	0.438	0.398	0.788	0.693	0.733	0.777	0.726	0.891	0.918	0.77	0.643	0.873
NCI-H322M	0.956	0.84	0.884	0.88	0.774	0.841	0.764	0.668	0.626	0.701	0.721	0.631	0.68	0.655	0.729	0.945	0.902	0.849	0.685	0.721
NCI-H1395	0.623	0.532	0.675	0.504	0.521	0.451	0.418	0.464	0.456	0.427	0.68	0.671	0.707	0.738	0.718	1.03	1.09	0.653	0.533	0.869
NCI-H358	0.441	0.158	0.256	0.313	0.319	0.405	0.289	0.343	0.326	0.218	0.201	0.195	0.202	0.21	0.229	0.796	0.822	0.516	0.26	0.469
NCI-H838	0.309	0.343	0.236	0.295	0.319	0.523	0.503	0.613	0.595	0.518	0.47	0.483	0.477	0.444	0.523	1.14	1.02	0.751	0.319	0.733
